{"source": "paper PMC5895803", "about": "“Inhibition of cancer stem cell like cells by a synthetic retinoid” (Nature Communications, 2018)", "key": {"[1]": {"assay": "Systemic toxicity in treated mice (body weight, organs)", "type": "in vivo, C57BL/6 mice", "text": "Four- to six-week-old female and male C57BL/6 mice were used in mice experiment. Mice were randomized into different groups. In metastasis experiment, B16-F1 cell spheroids were selected from 3D 90-Pa fibrin gels and pipetted to single cells. These TRCs were harvested and the cell number was counted under microscopy. The cells were then suspended in PBS with appropriate cell density. Thirty thousand TRCs were intravenously injected into the tail vein of each wild-type C57BL/6 mouse. Five days later, inoculated mice were intravenous implanted with 0.022 mg kg^−1 WYC-209, 0.22 mg kg^−1 WYC-209, or 0.1% DMSO every two days. The mice were euthanized and examined for lung tumor formation at day 30. In treated TRCs injected in vivo experiments, B16-F1 cells were seeded into 3D 90-Pa fibrin gels and treated with 10 µM WYC-209 or 0.1% DMSO on day 3, then isolated treated TRCs colonies on day 5 and pipetted into single cell. 30,000 of TRCs were intravenously injected into the tail vein of each wild-type C57BL/6 mouse. No blinding was performed in the mice experiments.\nLung, liver, spleen, bone, stomach, and brain of C57BL/6 mice were fixed by 4% paraformaldehyde then were embedded in paraffin and cut to ~4 µm thick sections by Thermo FINESSE 325. Organ sections were stained by H&E and slides were evaluated for tumor formation by a veterinary pathologist blinded to sample identity."}, "Sox2": {"system": "Sox2", "assay": "Sox2 expression by qPCR in TRCs", "type": "cell-based, murine", "procedure": "Total mRNA was isolated from the cells using the Trizol reagent according to the supplier’s instruction (Invitrogen). Reverse transcription (RT) was performed using the TransScript First-strand cDNA Synthesis SuperMix (TransGen), according to the manufacturer’s protocol. Real-time RT-PCR was performed using GoTaq qPCR Master Mix (Promega). The data were normalized against mouse glyceraldehyde 3-phosphate dehydrogenase. The primer sequences are as follows: mouse GAPDH (F: 5′-[…]-3′, R: 5′-[…]-3′); mouse RARα (F: 5′-[…]-3′, R: 5′-[…]-3′); mouse RARβ (F: 5′-[…]-3′, R: 5′-[…]-3′); mouse RARγ (F: 5′-[…]-3′, R:5′-[…]-3′); mouse Sox2 (F: 5′-[…]-3′, R: 5′-[…]-3′); mouse Mitf (F: 5′-[…]-3′, R: 5′-[…]-3′).\nSupplementary Figure 39. WYC-209 decreases Sox2 expression but has no effects on Mitf expression. Murine melanoma cells B16-F1 were seeded into 3D soft fibrin gels and then were treated with 0.1% DMSO, 0.1, 1 or 10 µM WYC-209, WYC-209A, or WYC-209B on day 4. mRNA of cells were extracted after 24 hours. Sox2 (a) and Mitf (b) expressions […]\n(§1) (1 picture or pasted object on this page, not shown here)"}, "3T3 fibroblasts": {"system": "3T3 fibroblasts", "assay": "Non-cancerous 3T3 fibroblasts on rigid dishes", "type": "cell-based, murine", "details": "0.1, 1, or 10 μM, 18 hrs", "procedure": "Murine fibroblast cell line 3T3 cells were cultured on rigid plastic and treated with 0.1, 1, or 10 μM WYC-209 at the time of plating and observed for 18 hrs. Cell nucleus were stained with DAPI and apoptotic cells were assayed with PI. None: medium only; DMSO: medium containing 0.1% DMSO. (a) Representative images of cells at hour 18. (b) Quantitation of cell numbers per view field at hour 18. Mean ± s.e.m.; n= 5 randomly chosen view-fields; 3 separate experiments; no significant differences were observed between groups (Student’s t-test). Scale bars, 500 μm.\nas §1"}, "human lung cancer A549": {"system": "human lung cancer A549", "assay": "Colony growth of A549 TRCs in 90-Pa fibrin gels", "type": "cell-based", "procedure": "(§2) Salmon fibrinogen and thrombin were purchased from Reagent Proteins (CA, USA). 3D fibrin gels were prepared as described previously[5],[6]. In brief, fibrinogen was diluted into 2 mg mL^−1 with T7 buffer (pH 7.4, 50 mM Tris, 150 mM NaCl). Cells were detached from 2D rigid dishes and cell density was adjusted to 10^4 cells per mL. Fibrinogen and cell solution mixture were made by mixing the same volume of fibrinogen solution and cell solution, resulting in 1 mg mL^−1 fibrinogen and 5000 cells per mL in the mixture fibrin gels. A volume of 50 μL cell/fibrinogen mixture was seeded into each well of 96-well plate and mixed well with pre-added 1 μL thrombin (100 U mL^−1). The cell culture plate was then incubated in 37 °C cell culture incubator for 10 min. Finally, 200 μL of DMEM medium containing 10% FBS and antibiotics was added."}, "[2]": {"system": "human ovarian cancer A2780", "assay": "Colony growth of A2780 TRCs in 90-Pa fibrin gels", "type": "cell-based", "procedure": "as §2"}, "[3]": {"system": "unselected B16-F1 melanoma cells", "assay": "Proliferation of unselected B16-F1 cells on 2D rigid dishes", "type": "cell-based, murine", "details": "10 μM, 48 hours", "procedure": "Supplementary Figure 9. WYC-209 detaches adherent melanoma cells on rigid plastic. Murine melanoma cell line B16-F1 were cultured on rigid plastics and treated with 10 μM WYC-209 and observed for 48 hours. Cell nucleus were stained with DAPI. DMSO: medium containing 0.1% DMSO. (a) Representative images of cells stained with DAPI 48 hrs after treatment. Scale bars, 500 μm. (b) Quantitation of cell numbers per view field of B16-F1 treated with WYC-209. Mean ± s.e.m.; n=5 samples; 3 independent experiments; *** P<0.001 (Student’s t-test).\nas §1"}, "[4]": {"system": "human malignant melanoma A375", "assay": "Colony growth of A375 TRCs in 90-Pa fibrin gels", "type": "cell-based", "details": "Homo sapiens", "procedure": "as §2"}}, "note": "“Also recorded” adds a separate entry of the source.", "data": [{"smiles": "CCOC(=O)c1cnc(C#Cc2ccc3c(c2)C(C)(C)CC[S+]3[O-])nc1", "note": "(stereo not drawn) [WYC-209]", "values": [{"measurement": "Mouse body weight versus control group", "setting": "[1]; 0.022 or 0.22 mg kg−1", "result": "no effects on mouse weight"}, {"measurement": "Toxic effects in mice / on organs", "setting": "[1]; 0.022 or 0.22 mg kg−1 i.v. every two days", "result": "No abnormalities in mouse organs; also recorded: no toxic effects on mouse livers; also recorded: no toxic effects on mouse stomach; also recorded: no observable toxic or necrotic effects or weight loss; also recorded: without showing apparent toxicity"}, {"measurement": "Decrease of Sox2 expression", "setting": "Sox2; 10 μM, 24 h", "result": "~ 50%"}, {"measurement": "Change in Sox2 expression", "setting": "Sox2; 0.1 or 1 µM", "result": "no change"}, {"measurement": "Impact / toxicity on non-cancerous 3T3 fibroblasts", "setting": "3T3 fibroblasts", "result": "little toxicity; also recorded: little impact"}, {"measurement": "IC50", "setting": "human lung cancer A549; 0 h, A549, treated on day 0", "result": 100, "unit": "nM"}, {"measurement": "inhibition at 10 µM", "setting": "human lung cancer A549; A549, 10 μM", "result": 100, "unit": "%"}, {"measurement": "IC50", "setting": "[2]; 0 h, A2780, treated on day 0", "result": 230, "unit": "nM"}, {"measurement": "inhibition at 10 µM", "setting": "[2]; A2780, 10 μM", "result": 100, "unit": "%"}, {"measurement": "Proliferation of unselected B16-F1 cells on 2D rigid dishes", "setting": "[3]", "result": "completely inhibited"}, {"measurement": "IC50", "setting": "[4]; A-375, 0 h, A375, treated on day 0", "result": 380, "unit": "nM"}, {"measurement": "inhibition at 10 µM", "setting": "[4]; A-375, A375, 10 μM", "result": 100, "unit": "%"}]}]}
